Measurements as given in patent US6355799B1, “Substituted benzene compounds, process for their preparation, and herbicidal and defoliant compositions containing them” (ISK Americas Incorporated, priority 1997, dated 2002).

What was measured:
Format in all cases: in vivo
[1] = test system: field corn (Zea mays L., var. Dekalb 535, CORN); assay: Post-emerge test, crop safety; settings: post-emerge, 14 days after application, rating scale 0-100
How it was run: (§1)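 Visual ratings on a 0-100 scale (0 no damage, 100 all plants dead) were taken at 14 days after treatment. Rates of 15-1000 g ai/ha in acetone, 187 l/ha, were sprayed onto soil one day after planting (pre-emerge) or onto 2-3 leaf plants with 0.25% v/v surfactant (post-emerge).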

[2] = test system: upland rice (Oryza sp., var. Tebonnet, RICE); assay: Post-emerge test, crop safety; settings: post-emerge, 14 days after application, rating scale 0-100
How it was run: as §1

[3] = test system: redroot pigweed (Amaranthus retroflexus, AMARE); assay: Pre-emerge test, greenhouse herbicide activity screening; settings: phytotoxicity rating 0-100, 14 days after application
How it was run: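 Compounds in acetone were track-sprayed at 187 l/ha, 15–1000 g ai/ha, onto sandy loam pots. Pre-emerge seeds were sown one day before spraying, with surface watering afterwards. Post-emerge plants were at the 2–3 leaf stage and sprayed with 0.25% v/v non-ionic surfactant. Injury was rated 0–100 at 14 days.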

[4] = test system: lambsquarters (Chenopodium album, CHEAL); assay: Post-emerge test, greenhouse herbicide activity screening; settings: post-emerge, 14 days after application, rating scale 0-100
How it was run: (§2)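 Fourteen days after spraying, crop and weed injury was graded visually from 0, no effect, to 100, every plant dead. Test substances were dissolved in acetone and applied at 15–1000 g ai/ha with a flat-fan nozzle. Application was either pre-emergence, one day after sowing, or post-emergence at the 2–3 leaf stage.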

[5] = test system: sicklepod (Cassia obtusifolia, CASOB); assay: as above; settings: post-emerge, 14 days after application, rating scale 0-100
How it was run: as §2

[6] = test system: large crabgrass (Digitaria sanguinalis, DIGSA); assay: as above; settings: post-emerge, 14 days after application, rating scale 0-100
How it was run: as §2

[7] = test system: barnyardgrass (Echinochloa crus-galli, ECHCG); assay: as above; settings: post-emerge, 14 days after application, rating scale 0-100
How it was run: as §2

[8] = test system: velvetleaf (Abutilon theophrasti, ABUTH); assay: as above; settings: post-emerge, 14 days after application, rating scale 0-100
How it was run: as §2

[9] = test system: green foxtail (Setaria viridis, SETVI); assay: as above; settings: post-emerge, 14 days after application, rating scale 0-100
How it was run: as §2

[10] = test system: ivyleaf morningglory (Ipomoea hederacea, IPOHE); assay: as above; settings: post-emerge, 14 days after application, rating scale 0-100
How it was run: as §2

[11] = test system: johnsongrass (Sorghum halepense, SORHA); assay: as above; settings: post-emerge, 14 days after application, rating scale 0-100
How it was run: as §2

[12] = test system: redroot pigweed (Amaranthus retroflexus, AMARE); assay: as above; settings: post-emerge, 14 days after application
How it was run: as §2

[13] = test system: field corn (Zea mays L., var. Dekalb 535, CORN); assay: Pre-emerge test, crop safety; settings: crop damage rating 0-100, 14 days after application
How it was run: (§3)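 Rating: 0–100 visual injury, 14 DAA. Application: acetone, 187 l/ha, 15–1000 g ai/ha, flat-fan track sprayer with nozzle 40–45 cm above soil or canopy. Post-emerge runs used 0.25% v/v surfactant on 2–3 leaf plants.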

[14] = test system: upland rice (Oryza sp., var. Tebonnet, RICE); assay: Pre-emerge test, crop safety; settings: crop damage rating 0-100, 14 days after application
How it was run: as §3

[15] = test system: lambsquarters (Chenopodium album, CHEAL); assay: Pre-emerge test, greenhouse herbicide activity screening; settings: phytotoxicity rating 0-100, 14 days after application
How it was run: as §1

[16] = test system: sicklepod (Cassia obtusifolia, CASOB); assay: as above; settings: phytotoxicity rating 0-100, 14 days after application
How it was run: as §1

[17] = test system: large crabgrass (Digitaria sanguinalis, DIGSA); assay: as above; settings: phytotoxicity rating 0-100, 14 days after application
How it was run: as §1

[18] = test system: barnyardgrass (Echinochloa crus-galli, ECHCG); assay: as above; settings: phytotoxicity rating 0-100, 14 days after application
How it was run: as §1

[19] = test system: velvetleaf (Abutilon theophrasti, ABUTH); assay: as above; settings: phytotoxicity rating 0-100, 14 days after application
How it was run: as §1

[20] = test system: green foxtail (Setaria viridis, SETVI); assay: as above; settings: phytotoxicity rating 0-100, 14 days after application
How it was run: as §1

[21] = test system: ivyleaf morningglory (Ipomoea hederacea, IPOHE); assay: as above; settings: phytotoxicity rating 0-100, 14 days after application
How it was run: as §1

[22] = test system: johnsongrass (Sorghum halepense, SORHA); assay: as above; settings: phytotoxicity rating 0-100, 14 days after application
How it was run: as §1

Cn1c(C(F)(F)F)cc(=O)n(-c2c(F)cc(Cl)c(Oc3ncccc3[N+](=O)[O-])c2NC(=O)c2ccc3ccccc3c2)c1=O [2-199]
phytotoxicity rating CORN (crop damage) ([1]; 63 g ai/ha): 30
phytotoxicity rating CORN (crop damage) ([1]; 250 g ai/ha): 90
phytotoxicity rating RICE (crop damage) ([2]; 63 g ai/ha): 80
phytotoxicity rating RICE (crop damage) ([2]; 250 g ai/ha): 90
Pre-emerge Herbicidal Activity AMARE ([3]; 63 g ai/ha): 100
Pre-emerge Herbicidal Activity AMARE ([3]; 250 g ai/ha): 100
phytotoxicity rating CHEAL ([4]; 63 g ai/ha): 100
phytotoxicity rating CHEAL ([4]; 250 g ai/ha): 100
phytotoxicity rating CASOB ([5]; 63 g ai/ha): 100
phytotoxicity rating CASOB ([5]; 250 g ai/ha): 100
phytotoxicity rating DIGSA ([6]; 63 g ai/ha): 30
phytotoxicity rating DIGSA ([6]; 250 g ai/ha): 95
phytotoxicity rating ECHCG ([7]; 63 g ai/ha): 60
phytotoxicity rating ECHCG ([7]; 250 g ai/ha): 100
phytotoxicity rating ABUTH ([8]; 63 g ai/ha): 100
phytotoxicity rating ABUTH ([8]; 250 g ai/ha): 100
phytotoxicity rating SETVI ([9]; 63 g ai/ha): 50
phytotoxicity rating SETVI ([9]; 250 g ai/ha): 90
phytotoxicity rating IPOHE ([10]; 63 g ai/ha): 100
phytotoxicity rating IPOHE ([10]; 250 g ai/ha): 100
phytotoxicity rating SORHA ([11]; 63 g ai/ha): 40
phytotoxicity rating SORHA ([11]; 250 g ai/ha): 95
phytotoxicity rating AMARE ([12]; 63 g ai/ha, rating scale 0-100 (0 no damage, 100 complete death)): 95
phytotoxicity rating AMARE ([12]; 250 g ai/ha, rating scale 0-100): 100
Pre-emerge Herbicidal Activity CORN ([13]; 63 g ai/ha): 95
Pre-emerge Herbicidal Activity CORN ([13]; 250 g ai/ha): 100
Pre-emerge Herbicidal Activity RICE ([14]; 63 g ai/ha): 99
Pre-emerge Herbicidal Activity RICE ([14]; 250 g ai/ha): 100
Pre-emerge Herbicidal Activity CHEAL ([15]; 63 g ai/ha): 100
Pre-emerge Herbicidal Activity CHEAL ([15]; 250 g ai/ha): 100
Pre-emerge Herbicidal Activity CASOB ([16]; 63 g ai/ha): 100
Pre-emerge Herbicidal Activity CASOB ([16]; 250 g ai/ha): 100
Pre-emerge Herbicidal Activity DIGSA ([17]; 63 g ai/ha): 100
Pre-emerge Herbicidal Activity DIGSA ([17]; 250 g ai/ha): 100
Pre-emerge Herbicidal Activity ECHCG ([18]; 63 g ai/ha): 99
Pre-emerge Herbicidal Activity ECHCG ([18]; 250 g ai/ha): 100
Pre-emerge Herbicidal Activity ABUTH ([19]; 63 g ai/ha): 100
Pre-emerge Herbicidal Activity ABUTH ([19]; 250 g ai/ha): 100
Pre-emerge Herbicidal Activity SETVI ([20]; 63 g ai/ha): 100
Pre-emerge Herbicidal Activity SETVI ([20]; 250 g ai/ha): 100
Pre-emerge Herbicidal Activity IPOHE ([21]; 63 g ai/ha): 100
Pre-emerge Herbicidal Activity IPOHE ([21]; 250 g ai/ha): 100
Pre-emerge Herbicidal Activity SORHA ([22]; 63 g ai/ha): 100
Pre-emerge Herbicidal Activity SORHA ([22]; 250 g ai/ha): 100
